The text below walks through data of BindingDB's records for patent US20250313563 (The Broad Institute, 2025).

Experiment [1] concerns the target Glycogen synthase kinase-3 alpha (Homo sapiens, UniProt P49840). Put plainly: TR-FRET Assay. A digest of the protocol:
(§1)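 TR-FRET readout: streptavidin-d2 (40 nM in added detection mix) plus Tb-anti-pSer641 Ab (2 nM in mix). Steps were 30 min compound preincubation, kinase reaction, then EDTA stop.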

Experiment [2] deals with Glycogen synthase kinase-3 beta (Homo sapiens, UniProt P49841). As to the kind of experiment: TR-FRET Assay. A digest of the protocol: as §1

Several values for one entry are separate records, joined by “and”; a condition that tells them apart may be missing. Identical values can stand only once.

Glycogen synthase kinase-3 alpha, sequence (P49840 whole entry): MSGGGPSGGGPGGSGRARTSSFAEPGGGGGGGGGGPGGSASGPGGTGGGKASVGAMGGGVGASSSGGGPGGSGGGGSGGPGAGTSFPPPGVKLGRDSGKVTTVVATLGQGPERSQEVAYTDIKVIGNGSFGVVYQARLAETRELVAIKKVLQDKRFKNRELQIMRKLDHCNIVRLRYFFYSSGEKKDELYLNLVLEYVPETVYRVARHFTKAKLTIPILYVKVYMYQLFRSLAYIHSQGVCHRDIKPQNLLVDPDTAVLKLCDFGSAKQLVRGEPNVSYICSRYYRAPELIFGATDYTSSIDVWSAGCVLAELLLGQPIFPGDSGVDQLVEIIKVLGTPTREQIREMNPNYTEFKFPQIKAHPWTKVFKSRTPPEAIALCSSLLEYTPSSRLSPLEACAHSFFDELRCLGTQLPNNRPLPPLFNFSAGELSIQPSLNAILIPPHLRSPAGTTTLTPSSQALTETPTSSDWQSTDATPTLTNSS
Glycogen synthase kinase-3 beta, sequence (P49841 whole entry): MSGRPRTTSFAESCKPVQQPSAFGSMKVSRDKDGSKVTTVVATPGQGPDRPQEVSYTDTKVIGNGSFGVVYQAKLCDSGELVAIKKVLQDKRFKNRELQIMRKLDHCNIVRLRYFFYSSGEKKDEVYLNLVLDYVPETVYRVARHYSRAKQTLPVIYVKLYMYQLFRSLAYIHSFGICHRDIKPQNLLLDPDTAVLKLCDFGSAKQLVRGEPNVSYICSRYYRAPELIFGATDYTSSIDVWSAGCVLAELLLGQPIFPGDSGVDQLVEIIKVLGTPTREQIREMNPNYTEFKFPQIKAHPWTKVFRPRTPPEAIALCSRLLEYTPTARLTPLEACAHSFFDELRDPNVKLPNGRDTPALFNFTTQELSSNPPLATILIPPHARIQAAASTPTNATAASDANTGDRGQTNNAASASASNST

On to `CC[C@]1(c2cccc(-c3cn(C)nc3C)c2)C2=C(CC(C)(C)NC2=O)NC2N=NC(F)=C21` (some centres not stated) [US20250313563, Compound 949176], for which the results for the IC50 in experiment [1] and in experiment [2] were 1 to 5 µM and more than 5 µM, respectively.

With `CC[C@]1(c2cccc(N(c3cccnc3)C(C)C)c2)C2=CN=NC2NC2=C1C(=O)CC(C)(C)C2` (some centres not stated) [US20250313563, Compound 917086], the IC50 in experiment [1] is < 0.1 µM and 0.1 to 1 µM; in experiment [2] it was < 0.1 µM and 1 to 5 µM.

Consider `CC[C@@]1(c2ccccc2)C2=CN=NC2NC2=C1C(=O)C[C@](C)(COC)C2` (some centres not stated) [US20250313563, Compound 816873], for which the IC50 in experiment [1] was in the range of 0.1 to 1 µM; in experiment [2] it was 1 to 5 µM.

On to `CCC1(c2cccc(C(F)(F)F)c2)C2=CN=NC2NC2=C1C(=O)N(c1ccccc1)CC2` (configuration not stated) [US20250313563, Compound 917211], for which the IC50 was less than 0.1 µM in experiment [1] and 0.1 to 1 µM in experiment [2].

Take `CC[C@@]1(c2cccc(-c3ccncc3C)c2)C2=CN=NC2NC2=C1C(=O)CC(C)(C)C2` (some centres not stated) [US20250313563, Compound 943991]: the figures for the IC50 in experiment [1] and in experiment [2] were 0.1 to 1 µM and 1 to 5 µM, respectively.

Turning to `CCC1(c2cccc(-c3cnnc(C)c3)c2)C2=CN=NC2NC2=C1C(=O)NC(C)(C)C2` (configuration not stated) [US20250313563, Compound 943496], the IC50 in experiment [1] is less than 0.1 µM; in experiment [2], 1 to 5 µM.

`CC1(C)CC(=O)C2=C(C1)NC1=C(CN=N1)C21COC2(CN(C(=O)CC3CCCC3)C2)C1` (configuration not stated) [US20250313563, Compound 947293]: the IC50 in experiment [1] and in experiment [2] was less than 0.1 µM throughout.

With `Cc1ccccc1C(=O)N1CC2(C1)CC1(CO2)C2=C(N=NC2)NC2=C1C(=O)CC(C)(C)C2` (configuration not stated) [US20250313563, Compound 947287], the 50% inhibitory concentration (IC50) in experiment [1] was less than 0.1 µM; in experiment [2] it was 0.1 to 1 µM.

With `CC1(C)CC(=O)C2=C(C1)NC1=C(CN=N1)[C@]21CCO[C@@H](C(C)(C)C)C1` [US20250313563, Compound 912106], the IC50 in experiment [1] is 0.1 to 1 µM; in experiment [2], 1 to 5 µM.

With `CC(C)(C)CC1N=NC2=C1[C@](C)(c1cccc(S(=O)(=O)CC3CC3)c1)C1=C(CC(C)(C)NC1=O)N2` (some centres not stated) [US20250313563, Compound 108005], the IC50 in experiment [1] and in experiment [2] was 0.1 to 1 µM each time.

Consider `CCC1(c2cccc(N(c3cccnc3)C3CC3)c2)C2=CN=NC2NC2=C1C(=O)CC(C)(C)C2` (configuration not stated) [US20250313563, Compound 913274], for which the IC50 in experiment [1] and in experiment [2] was less than 0.1 µM each time.

`CC[C@@]1(c2cccc(C(F)(F)F)c2)C2=CN=NC2NC2=C1C(=O)N(C(C)(C)C)CC2` (some centres not stated) [US20250313563, Compound 945634]: the IC50 in experiment [1] is 1 to 5 µM; in experiment [2] it was more than 5 µM.

Take `CCCn1nccc1-c1cccc([C@@]2(CC)C3=CN=NC3NC3=C2C(=O)CC(C)(C)C3)c1` (some centres not stated) [US20250313563, Compound 946094]: the IC50 was in the range of 0.1 to 1 µM in experiment [1] and 1 to 5 µM in experiment [2].

For `CC[C@]1(c2cccc(-c3c(C)nn(C)c3C)c2)C2=CN=NC2NC2=C1C(=O)NC(C)(C)C2` (some centres not stated) [US20250313563, Compound 947413], the IC50 in experiment [1] is 1 to 5 µM; in experiment [2], more than 5 µM.

In the case of `CC[C@@]1(c2cccc(N(C)c3ccnc(OC)c3)c2)C2=CN=NC2NC2=C1C(=O)CC(C)(C)C2` (some centres not stated) [US20250313563, Compound 932662], the IC50 in experiment [1] and in experiment [2] was more than 5 µM each time.

In the case of `CC[C@@]1(c2cccc(C3=C4CC=C(Cl)C=C4N=CC3)c2)C2=CN=NC2NC2=C1C(=O)NC(C)(C)C2` (some centres not stated) [US20250313563, Compound 948368], the IC50 in experiment [1] was less than 0.1 µM; in experiment [2], 0.1 to 1 µM.

Consider `CC(C)S(=O)(=O)N1CCC2(CC1)C1=C(N=NC1)NC1=C2C(=O)CC(C)(C)[C@@H]1F` [US20250313563, Compound 951714], for which the IC50 in experiment [1] is < 0.1 µM and 0.1 to 1 µM; in experiment [2] it was < 0.1 µM and 0.1 to 1 µM.

As for `CC(C)(C)CC1N=NC2=C1[C@@](C)(c1cccc(S(=O)(=O)C(F)(F)F)c1)C1=C(CC(C)(C)CC1=O)N2` (some centres not stated) [US20250313563, Compound 126396], the 50% inhibitory concentration (IC50) in experiment [1] and in experiment [2] was more than 5 µM each time.

With `CC(C)(C)CC1=C2C(N=N1)NC1=C(C(=O)CC(C)(C)C1)C21CCc2cccc(F)c21` (configuration not stated) [US20250313563, Compound 789583], the IC50 in experiment [1] and in experiment [2] was 0.1 to 1 µM throughout.

Consider `CC[C@]1(c2cccc(C(F)(F)F)c2)C2=C(NC3=NN=CC31)c1ccccc1C2=O` (some centres not stated) [US20250313563, Compound 949743], for which the half-maximal inhibitory concentration (IC50) in experiment [1] was less than 0.1 µM; in experiment [2], < 0.1 µM and 0.1 to 1 µM.

For `CC[C@@]1(c2cccc(N3CCCCC3)c2)C2=C(CC(C)(C)CC2=O)NC2N=NC(C(F)(F)F)=C21` (some centres not stated) [US20250313563, Compound 816799], the IC50 in experiment [1] was 0.1 to 1 µM; in experiment [2] it was 1 to 5 µM.

Consider `CC[C@]1(c2cccc(C(F)(F)F)c2)C2=CN=NC2NC2=C1C(=O)N(C)C(C)(C)C2` (some centres not stated) [US20250313563, Compound 826790], for which the IC50 in experiment [1] was 0.1 to 1 µM; in experiment [2], 1 to 5 µM.

In the case of `COc1ccc(S(=O)(=O)N2CCCC3(CC2)C2=CN=NC2NC2=C3C(=O)CC(C)(C)C2)cc1` (configuration not stated) [US20250313563, Compound 917141], the IC50 in experiment [1] is less than 0.1 µM; in experiment [2], 0.1 to 1 µM.

Take `CC[C@@]1(c2cccc(Br)c2)C2=C(C[C@H](C)CC2=O)NC2N=NC(C(F)(F)F)=C21` (some centres not stated) [US20250313563, Compound 828850]: the IC50 in experiment [1] and in experiment [2] was 0.1 to 1 µM each time.

Regarding `CCC1(c2cccc(-c3ccnc(C)c3)c2)C2=CN=NC2NC2=C1C(=O)NC(C)(C)C2` (configuration not stated) [US20250313563, Compound 914930], the IC50 is less than 0.1 µM in experiment [1] and 1 to 5 µM in experiment [2].

Turning to `CCC1(c2cccc(S(C)(=O)=O)c2)C2=C(CC(C)(C)NC2=O)NC2N=NC(C)=C21` (configuration not stated) [US20250313563, Compound 947395], the IC50 in experiment [1] and in experiment [2] was 0.1 to 1 µM throughout.

For `CCC1(c2cccc(-c3cncn3C(C)C)c2)C2=CN=NC2NC2=C1C(=O)CC(C)(C)C2F` (configuration not stated) [US20250313563, Compound 963155], the IC50 in experiment [1] and in experiment [2] was less than 0.1 µM in each case.

On to `CC1(C)CC(=O)C2=C(C1)NC1=C(CN=N1)C21COC2(CN(C(=O)c3ccccc3F)C2)C1` (configuration not stated) [US20250313563, Compound 947289], for which the IC50 in experiment [1] and in experiment [2] was less than 0.1 µM each time.

Take `CC1(C)CC(=O)C2=C(C1)NC1=C(CN=N1)C21Cc2ccccc2C1` [US20250313563, Compound 897752]: the IC50 was less than 0.1 µM in experiment [1] and 0.1 to 1 µM in experiment [2].

On to `CCn1nccc1-c1cccc([C@]2(CC)C3=CN=NC3NC3=C2C(=O)CC(C)(C)C3)c1` (some centres not stated) [US20250313563, Compound 946089], for which the IC50 in experiment [1] is less than 0.1 µM; in experiment [2] it was < 0.1 µM and 0.1 to 1 µM.

As to `CC[C@]1(c2cccc(-c3ccnc4c3CCC4)c2)C2=CN=NC2NC2=C1C(=O)CC(C)(C)C2` (some centres not stated) [US20250313563, Compound 945619], the IC50 in experiment [1] was 1 to 5 µM; in experiment [2] it was more than 5 µM.

With `CC[C@]1(c2cccc(-c3cnn(-c4cccnc4)c3)c2)C2=CN=NC2NC2=C1C(=O)NC(C)(C)C2` (some centres not stated) [US20250313563, Compound 949515], the IC50 in experiment [1] and in experiment [2] was more than 5 µM in each case.

Regarding `CC[C@@]1(c2cccc(C(F)(F)F)c2)C2=CN=NC2NC2=C1C(=O)N(c1ccc(OC)cc1)CC2` (some centres not stated) [US20250313563, Compound 948227], the IC50 in experiment [1] is 1 to 5 µM; in experiment [2], more than 5 µM.

As to `CC[C@]1(c2cccc(-c3ccnc(C)c3)c2)C2=C(N=NC2)NC2=C1C(=O)C(C)(C)C2` [US20250313563, Compound 950282], the IC50 in experiment [1] is less than 0.1 µM; in experiment [2], 0.1 to 1 µM.

As to `CC[C@@]1(c2cccc(-c3cnn(C)c3)c2)C2=CN=NC2NC2=C1C(=O)C[C@H](C)C2` (some centres not stated) [US20250313563, Compound 823724], the IC50 in experiment [1] was in the range of 0.1 to 1 µM; in experiment [2], 1 to 5 µM.

As to `CCC1(c2cccc(-c3ccnc(C)c3)c2)C2=C(CC(C)(C)NC2=O)NC2N=NC(C(F)F)=C21` (configuration not stated) [US20250313563, Compound 949169], the IC50 in experiment [1] is < 0.1 µM and 0.1 to 1 µM; in experiment [2] it was < 0.1 µM and 1 to 5 µM.

For `CCC1(c2cccc(N(C)C(C)=O)c2)C2=CN=NC2NC2=C1C(=O)CC(C)(C)C2` (configuration not stated) [US20250313563, Compound 801319], the IC50 in experiment [1] and in experiment [2] was less than 0.1 µM in each case.

Take `CCC1(c2cccc(-c3cnn(C)c3)c2)C2=CN=NC2NC2=C1C(=O)CC(C)C2` (configuration not stated) [US20250313563, Compound 816752]: the IC50 is less than 0.1 µM in experiment [1] and 1 to 5 µM in experiment [2].

For `CC[C@]1(c2cccc(C(F)(F)F)c2)C2=CN=NC2NC2=C1C(=O)N(CC(F)(F)F)CC2` (some centres not stated) [US20250313563, Compound 912205], the IC50 in experiment [1] and in experiment [2] was more than 5 µM in each case.

On to `CC[C@]1(c2cccc(OCC(F)F)c2)C2=CN=NC2NC2=C1C(=O)CC(C)(C)C2` (some centres not stated) [US20250313563, Compound 949104], for which the IC50 in experiment [1] and in experiment [2] was less than 0.1 µM each time.

As for `CC1(C)CC(=O)C2=C(C1)NC1N=NC=C1C21CCCN(c2ccncc2)CC1` (configuration not stated) [US20250313563, Compound 932633], the IC50 in experiment [1] and in experiment [2] was more than 5 µM in each case.

Regarding `CC[C@@]1(c2cccc(S(=O)(=O)CC3CC3)c2)C2=C(CC(C)(C)NC2=O)NC2N=NC(C(F)(F)F)=C21` (some centres not stated) [US20250313563, Compound 949186], the IC50 in experiment [1] and in experiment [2] was 0.1 to 1 µM throughout.

Regarding `CC[C@]1(c2cccc(-c3c(C#N)cnn3C)c2)C2=C(CC(C)(C)NC2=O)NC2N=NC(C)=C21` (some centres not stated) [US20250313563, Compound 952410], the IC50 in experiment [1] is < 0.1 µM and 0.1 to 1 µM; in experiment [2] it was < 0.1 µM and 1 to 5 µM.

`CC[C@@]1(c2cccc(S(C)(=O)=O)c2)C2=C(CC(C)(C)NC2=O)NC2N=NC(C)=C21` (some centres not stated) [US20250313563, Compound 947815]: the IC50 was 1 to 5 µM in experiment [1] and more than 5 µM in experiment [2].

In the case of `CC[C@]1(c2cccc(-c3ccnc4cnccc34)c2)C2=CN=NC2NC2=C1C(=O)NC(C)(C)C2` (some centres not stated) [US20250313563, Compound 948819], the IC50 was 1 to 5 µM in experiment [1] and more than 5 µM in experiment [2].

With `Cn1ccc(S(=O)(=O)N2CC[C@@]3(C2)C2=C(N=NC2)NC2=C3C(=O)CC(C)(C)C2)n1` [US20250313563, Compound 943484], the IC50 in experiment [1] was < 0.1 µM and 0.1 to 1 µM; in experiment [2], < 0.1 µM and 1 to 5 µM.
